In publication PMC4505086, “Azobenzene-based inhibitors of human carbonic anhydrase II” (Beilstein Journal of Organic Chemistry, 2015) one finds Ki and IC50 data, which are given here for 8 molecules.

The target of the assay is T1, human carbonic anhydrase II (hCAII) (Homo sapiens, UniProt P00918).
T1 construct: made in house
Put plainly: colorimetric endpoint measurement of hCAII-catalyzed pNPA hydrolysis. The assay is classed as biochemical. Conditions: for Ki: calculated from IC50 by Cheng–Prusoff equation, Km = 1092.5 µM for pNPA, [S] = 5.0 mM; for IC50: wild-type hCAII 500 nM, pNPA 5 mM, 50 mM Tris pH 7.4, 20–30 min in the dark, absorbance at 400 nm. The text has this:
In order to determine the half-maximal inhibitory concentrations (IC50) and the inhibitory constants (Ki) towards hCAII for our library, we used a colorimetric endpoint measurement of the catalyzed pNPA hydrolysis (Figure 1a). Usually, a dansyl competition assay is employed for this purpose. However, as this assay is fluorescence-based and azobenzenes can quench fluorescence, this might cause a distortion in the obtained data. Furthermore, irradiation with UV light (i.e., λ = 280 nm for tryptophan excitation) can result in azobenzene-cis-isomerization, which could lead to different binding characteristics. Therefore, we aimed at the endpoint absorbance system described herein.
5. hCAII purification, crystallization and assay
5.1. Purification and crystallization
Wild-type human Carbonic Anhydrase II (hCAII) was expressed and purified as […]
previously reported. […]
5.2. Determination of half-maximal inhibitory concentration (IC50)
Approximately 1.0 mg of hCAII was dissolved in 100 µL of 50 mM Tris (pH 7.4) and diluted to a final concentration of 500 nM (concentration was determined in duplicates by absorbance spectroscopy) and mixed with the appropriate amount of blocker. The enzyme-blocker solution was then pipetted into a 96-well plate (white, clear flat bottom) containing pNPA for a final concentration of 5 mM. This was added simultaneously with a multi-well-pipette. After 20–30 min of incubation in the dark, the absorbance was measured using a plate reader at λ = 400 nm. Obtained data was background substracted and divided by data points of non-inhibited hCAII in order to obtain relative activity. The data points were fitted sigmoidal (eq. 1) or using the Hill equation (eq. 2) using IgorPro […]
All experiments were performed at least in triplicates. […]
y = base + [max / (1 + exp[(xhalf – x)/rate)]] (eq. 1) y = base + (max – base)/(1 + (xhalf / x)rate) (eq. 2)
5.3. Determination of inhibitory constants (Ki)
Inhibitory constants were determined using the Cheng–Prussow equation (eq. 3) with the obtained half-maximal inibitory constants (IC50) and with substrate concentration [S]
The Michaelis–Menten constant Km was obtained for this assay system independently and […]

By Ki is commonly meant a dissociation constant, usually derived from enzyme kinetics or from competition with a known ligand. The term IC50 denotes the point on the concentration scale where inhibition reaches its midpoint. Take `NS(=O)(=O)c1ccc(/N=N/c2ccc(O)cc2)cc1` [1a]: the Ki was 29.7 nM and the IC50 was 166 nM.

In the case of `CCN(CC)c1ccc(/N=N/c2ccc(S(N)(=O)=O)cc2)cc1` [1b], the inhibition constant Ki was 25 nM and the half-inhibitory concentration (IC50) was 140 nM.

Take `NS(=O)(=O)c1ccc(/N=N/c2ccc(N3CCOCC3)cc2)cc1` [1c]: the inhibition constant (Ki) is 55.4 nM and the IC50 amounted to 309 nM.

Regarding `[N-]=[N+]=Nc1ccc(/N=N/c2ccc(S(N)(=O)=O)cc2)cc1` [1e], the Ki was 46.1 nM and it took 257 nM to reach half-maximal inhibition (IC50).

With `Cc1ccc(/N=N/c2ccc(S(N)(=O)=O)cc2)cc1` [1f], the Ki is 65.1 nM and half-maximal inhibition (IC50) was put at 363 nM.

Turning to `NS(=O)(=O)c1ccc(/N=N/c2ccc([N+](=O)[O-])cc2)cc1` [1g], the inhibition constant Ki was 28.6 nM and the midpoint of inhibition, the IC50, lay at 159 nM.

As to `NS(=O)(=O)c1ccc(/N=N/c2ccccc2)cc1` [1h], the inhibitory constant (Ki) was 44.8 nM and half-maximal inhibition (IC50) was put at 250 nM.

As to `CCOC(=O)c1ccc(/N=N/c2ccc(S(N)(=O)=O)cc2)cc1` [1i, (E)-Ethyl 4-((4-sulfamoylphenyl)diazenyl)benzoate], the Ki is 30.1 nM and half-maximal inhibition (IC50) was put at 168 nM.
